Consider two compounds from patent publication US9597361B2, “Treating a bacterial skin infection with a whole, leech saliva extract” (priority 2012, dated 2017).

In assay [1] the test system is Bacillus cereus ATCC25923. In words: Kirby-Bauer disc diffusion. To be noted: ATCC25923, read-out: Zone of inhibition, B. cereus. A general note: A growth-free zone around the sample is the usual read-out of agar diffusion tests.
The test system of a further assay is Salmonella typhi. In words: Kirby-Bauer disc diffusion. Type of assay: cell-based. To be noted: Salmonella enterica, read-out: Zone of inhibition, Sal. typhi.
For assay [2], the system named is Staphylococcus aureus ATCC25923. Briefly: Kirby-Bauer disc diffusion. To be noted: ATCC25923, read-out: Zone of inhibition, S. aureus.
The subject of assay [3] is Escherichia coli ATCC35218. In words: Kirby-Bauer disc diffusion. The following applies: ATCC35218, read-out: Zone of inhibition, E. coli.
Assay [4] relates to Pseudomonas aeruginosa ATCC27853. In words: Kirby-Bauer disc diffusion. The following applies: ATCC27853, read-out: Zone of inhibition, P. auroginosa.
The test system of assay [5] is alloxan-induced diabetic rats. Briefly: Antihyperglycemic activity: fasting blood glucose in alloxan-induced diabetic rats.
Experimental: Male rats of Sprague Dawley strain (SD) (from Mikro Makmur Enterprise, Kuantan, Pahang Darul Makmur, Malaysia) were grouped randomly and kept at an animal post-graduate laboratory in Kulliyyah of Pharmacy, International Islamic University Malaysia (IIUM), maintained with an air conditioning system and exhaust fans. The rats were under a 12 h/12 h dark and light cycle at room temperature (25° C.). They were acclimatized to these conditions for one week prior to the experiment and housed in polypropylene cages lined with pine wood husk changed every two days. The rats were given free access to tap water and a commercial dry pellet diet, Gold Coin. The experimental procedures were conducted according to Principles and Guide to Ethical Use of Laboratory Animals approved by Ministry of Health Malaysia (Sinniah & Hussein, 2000). […]
After 24 hours of alloxanisation, the fasting blood glucose concentration (FBG) was measured every morning to check the diabetic state of the injected rats. […]
Fasting blood glucose (FBG) at two-hour intervals was recorded during the experiment period for all the experimental animals. The percentage decrease in fasting blood glucose concentration was calculated from the following equation (Madubunyi, Onoja, & Asuzu, 2010):

In general, zone of inhibition refers to the extent of the growth-free halo in a diffusion test.

As to `O=C(O)c1cn(C2CC2)c2cc(N3CCNCC3)c(F)cc2c1=O` [Cipro, ciprofloxacin], the zone of inhibition at 5 µg/disc was 28 mm in assay [1]; 35 mm with Salmonella typhi; 24 mm in assay [2]; 26 mm in assay [3]; 24 mm in assay [4].

On to “insulin: insulin from bovine pancreas (≧27 units/mg), suspension in distilled water”, for which the “fasting blood glucose (FBG)” value in assay [5] (after two hours of injection (LSE p<0.05; insulin p<0.001)) is listed as “sharp significant decrease”; in assay [5] (insulin 10 units/kg b.w s.c., after 8 hours of treatment) it was “returned to the diabetic state”.
